Measurements taken from ChEMBL document CHEMBL4229455, “Synthesis and anticancer activity of novel bisindolylhydroxymaleimide derivatives with potent GSK-3 kinase inhibition” (Bioorg Med Chem, 2018).

Tests used:
Format in all cases: functional
HOP-92 = assay: Cytotoxicity against human HOP92 cells assessed as cell growth at 0.01 uM after 48 hrs by SRB assay relative to control; conditions: HOP-92, 48 h, read-out: Activity
NCI-H522 [1] = assay: Cytotoxicity against human NCI-H522 cells assessed as cell growth at 0.01 uM after 48 hrs by SRB assay relative to control; conditions: NCI-H522, 48 h, read-out: Activity
HCT-116 [2] = assay: Cytotoxicity against human HCT116 cells assessed as cell growth at 0.01 uM after 48 hrs by SRB assay relative to control; conditions: HCT-116, 48 h, read-out: Activity
KM12 [3] = assay: Cytotoxicity against human KM12 cells assessed as cell growth at 0.01 uM after 48 hrs by SRB assay relative to control; conditions: KM12, 48 h, read-out: Activity
SF-268 = assay: Cytotoxicity against human SF268 cells assessed as cell growth at 0.01 uM after 48 hrs by SRB assay relative to control; conditions: SF-268, 48 h, read-out: Activity
SNB-19 = assay: Cytotoxicity against human SNB19 cells assessed as cell growth at 0.01 uM after 48 hrs by SRB assay relative to control; conditions: SNB-19, 48 h, read-out: Activity
CAKI-1 [4] = assay: Cytotoxicity against human Caki1 cells assessed as cell growth at 0.01 uM after 48 hrs by SRB assay relative to control; conditions: CAKI-1, 48 h, read-out: Activity
Hs-578T = assay: Cytotoxicity against human Hs 578T cells assessed as cell growth at 0.01 uM after 48 hrs by SRB assay relative to control; conditions: read-out: Activity
BT-549 [5] = assay: Cytotoxicity against human BT549 cells assessed as cell growth at 0.01 uM after 48 hrs by SRB assay relative to control; conditions: BT-549, 48 h, read-out: Activity
HL-60(TB) = assay: Cytotoxicity against human HL-60(TB) cells assessed as cell growth at 0.1 uM after 48 hrs by SRB assay relative to control; conditions: HL-60, 48 h, read-out: Activity
NCI-H226 = assay: Cytotoxicity against human NCI-H226 cells assessed as cell growth at 0.1 uM after 48 hrs by SRB assay relative to control; conditions: NCI-H226, 48 h, read-out: Activity
NCI-H522 [6] = assay: Cytotoxicity against human NCI-H522 cells assessed as cell growth at 0.1 uM after 48 hrs by SRB assay relative to control; conditions: NCI-H522, 48 h, read-out: Activity
HCT-116 [7] = assay: Cytotoxicity against human HCT116 cells assessed as cell growth at 0.1 uM after 48 hrs by SRB assay relative to control; conditions: HCT-116, 48 h, read-out: Activity
SK-MEL-5 [8] = assay: Cytotoxicity against human SK-MEL-5 cells assessed as cell growth at 0.1 uM after 48 hrs by SRB assay relative to control; conditions: SK-MEL-5, 48 h, read-out: Activity
OVCAR-5 = assay: Cytotoxicity against human OVCAR5 cells assessed as cell growth at 0.1 uM after 48 hrs by SRB assay relative to control; conditions: OVCAR-5, 48 h, read-out: Activity
NCI/ADR-RES = assay: Cytotoxicity against human NCI-ADR-RES cells assessed as cell growth at 0.1 uM after 48 hrs by SRB assay relative to control; conditions: read-out: Activity
CAKI-1 [9] = assay: Cytotoxicity against human Caki1 cells assessed as cell growth at 0.1 uM after 48 hrs by SRB assay relative to control; conditions: CAKI-1, 48 h, read-out: Activity
MCF7 = assay: Cytotoxicity against human MCF7 cells assessed as cell growth at 0.1 uM after 48 hrs by SRB assay relative to control; conditions: MCF7, 48 h, read-out: Activity
BT-549 [10] = assay: Cytotoxicity against human BT549 cells assessed as cell growth at 0.1 uM after 48 hrs by SRB assay relative to control; conditions: BT-549, 48 h, read-out: Activity
A549 = assay: Cytotoxicity against human A549 cells assessed as cell growth at 1 uM after 48 hrs by SRB assay relative to control; conditions: A549, 48 h, read-out: Activity
COLO 205 = assay: Cytotoxicity against human COLO205 cells assessed as cell growth at 1 uM after 48 hrs by SRB assay relative to control; conditions: COLO 205, 48 h, read-out: Activity
KM12 [11] = assay: Cytotoxicity against human KM12 cells assessed as cell growth at 1 uM after 48 hrs by SRB assay relative to control; conditions: KM12, 48 h, read-out: Activity
UACC-257 = assay: Cytotoxicity against human UACC257 cells assessed as cell growth at 1 uM after 48 hrs by SRB assay relative to control; conditions: UACC-257, 48 h, read-out: Activity
A498 = assay: Cytotoxicity against human A498 cells assessed as cell growth at 1 uM after 48 hrs by SRB assay relative to control; conditions: A498, 48 h, read-out: Activity
PC-3 = assay: Cytotoxicity against human PC3 cells assessed as cell growth at 1 uM after 48 hrs by SRB assay relative to control; conditions: PC-3, 48 h, read-out: Activity
DU-145 = assay: Cytotoxicity against human DU145 cells assessed as cell growth at 1 uM after 48 hrs by SRB assay relative to control; conditions: DU-145, 48 h, read-out: Activity
T47D [12] = assay: Cytotoxicity against human T47D cells assessed as cell growth at 1 uM after 48 hrs by SRB assay relative to control; conditions: read-out: Activity
CCRF-CEM = assay: Cytotoxicity against human CCRF-CEM cells assessed as cell growth at 100 uM after 48 hrs by SRB assay relative to control; conditions: read-out: Activity
NCI-H522 [13] = assay: Cytotoxicity against human NCI-H522 cells assessed as cell growth at 100 uM after 48 hrs by SRB assay relative to control; conditions: NCI-H522, 48 h, read-out: Activity
HCC 2998 = assay: Cytotoxicity against human HCC2998 cells assessed as cell growth at 100 uM after 48 hrs by SRB assay relative to control; conditions: HCC 2998, 48 h, read-out: Activity
786-0 = assay: Cytotoxicity against human 786-O cells assessed as cell growth at 100 uM after 48 hrs by SRB assay relative to control; conditions: 786-0, 48 h, read-out: Activity
MOLT-4 = assay: Cytotoxicity against human MOLT4 cells after 48 hrs by SRB assay; conditions: MOLT-4, 48 h; for CC50: read-out: LC50 (the source's name)
HCT-116 [14] = assay: Cytotoxicity against human HCT116 cells after 48 hrs by SRB assay; conditions: HCT-116, 48 h
SK-MEL-5 [15] = assay: Cytotoxicity against human SK-MEL-5 cells after 48 hrs by SRB assay; conditions: SK-MEL-5, 48 h; for CC50: read-out: LC50 (the source's name)
CAKI-1 [16] = assay: Cytotoxicity against human Caki1 cells after 48 hrs by SRB assay; conditions: CAKI-1, 48 h
UO-31 = assay: Cytotoxicity against human UO31 cells after 48 hrs by SRB assay; conditions: UO-31, 48 h
T47D [17] = assay: Cytotoxicity against human T47D cells after 48 hrs by SRB assay

N#CCCCCCn1cc(C2=C(c3cn(CCCCCC#N)c4ccccc34)C(=O)N(O)C2=O)c2ccccc21
growth at 0.01 µM (HOP-92): 97%
growth at 0.01 µM (NCI-H522 [1]): 89%
growth at 0.01 µM (HCT-116 [2]): 102%
growth at 0.01 µM (KM12 [3]): 97%
growth at 0.01 µM (SF-268): 97%
growth at 0.01 µM (SNB-19): 97%
growth at 0.01 µM (CAKI-1 [4]): 98%
growth at 0.01 µM (Hs-578T): 93%
growth at 0.01 µM (BT-549 [5]): 101%
growth at 0.1 µM (HL-60(TB)): 89%
growth at 0.1 µM (NCI-H226): 96%
growth at 0.1 µM (NCI-H522 [6]): 86%
growth at 0.1 µM (HCT-116 [7]): 97%
growth at 0.1 µM (SK-MEL-5 [8]): 99%
growth at 0.1 µM (OVCAR-5): 89%
growth at 0.1 µM (NCI/ADR-RES): 92%
growth at 0.1 µM (CAKI-1 [9]): 95%
growth at 0.1 µM (MCF7): 85%
growth at 0.1 µM (BT-549 [10]): 92%
growth at 1 µM (A549): 100%
growth at 1 µM (COLO 205): 97%
growth at 1 µM (KM12 [11]): 102%
growth at 1 µM (UACC-257): 97%
growth at 1 µM (A498): 70%
growth at 1 µM (PC-3): 80%
growth at 1 µM (DU-145): 107%
growth at 1 µM (T47D [12]): 89%
growth at 100 µM (CCRF-CEM): 3%
growth at 100 µM (NCI-H522 [13]): -30%
growth at 100 µM (HCC 2998): 1%
growth at 100 µM (786-0): 6%
GI50 (MOLT-4): 2.93 µM
TGI (MOLT-4): > 100 µM
CC50 (MOLT-4): > 100 µM
GI50 (HCT-116 [14]): 4.17 µM
LC50 (HCT-116 [14]): > 100 µM
TGI (HCT-116 [14]): 37.8 µM
GI50 (SK-MEL-5 [15]): 2.92 µM
TGI (SK-MEL-5 [15]): 10.6 µM
CC50 (SK-MEL-5 [15]): 42.8 µM
GI50 (CAKI-1 [16]): 21.3 µM
LC50 (CAKI-1 [16]): > 100 µM
TGI (CAKI-1 [16]): > 100 µM
GI50 (UO-31): 1.76 µM
LC50 (UO-31): > 100 µM
TGI (UO-31): 90.1 µM
GI50 (T47D [17]): 4.15 µM
LC50 (T47D [17]): > 100 µM
TGI (T47D [17]): 60.5 µM

Cn1cc(C2=C(c3cn(C)c4ncccc34)C(=O)NC2=O)c2ccccc21
growth at 0.01 µM (HOP-92): 90%
growth at 0.01 µM (NCI-H522 [1]): 90%
growth at 0.01 µM (HCT-116 [2]): 106%
growth at 0.01 µM (KM12 [3]): 102%
growth at 0.01 µM (SF-268): 103%
growth at 0.01 µM (SNB-19): 92%
growth at 0.01 µM (CAKI-1 [4]): 97%
growth at 0.01 µM (Hs-578T): 91%
growth at 0.01 µM (BT-549 [5]): 110%
growth at 0.1 µM (HL-60(TB)): 99%
growth at 0.1 µM (NCI-H226): 91%
growth at 0.1 µM (NCI-H522 [6]): 98%
growth at 0.1 µM (HCT-116 [7]): 107%
growth at 0.1 µM (SK-MEL-5 [8]): 101%
growth at 0.1 µM (OVCAR-5): 102%
growth at 0.1 µM (NCI/ADR-RES): 96%
growth at 0.1 µM (CAKI-1 [9]): 86%
growth at 0.1 µM (MCF7): 87%
growth at 0.1 µM (BT-549 [10]): 98%
growth at 1 µM (A549): 84%
growth at 1 µM (COLO 205): 83%
growth at 1 µM (KM12 [11]): 82%
growth at 1 µM (UACC-257): 112%
growth at 1 µM (A498): 27%
growth at 1 µM (PC-3): 86%
growth at 1 µM (DU-145): 104%
growth at 1 µM (T47D [12]): 74%
growth at 100 µM (CCRF-CEM): 2%
growth at 100 µM (NCI-H522 [13]): -30%
growth at 100 µM (HCC 2998): -37%
growth at 100 µM (786-0): -19%
GI50 (MOLT-4): 3.53 µM
TGI (MOLT-4): 17.7 µM
CC50 (MOLT-4): > 100 µM
GI50 (HCT-116 [14]): 3.24 µM
TGI (HCT-116 [14]): 30.2 µM
GI50 (SK-MEL-5 [15]): 2.15 µM
TGI (SK-MEL-5 [15]): 5.8 µM
CC50 (SK-MEL-5 [15]): 21.8 µM
GI50 (CAKI-1 [16]): 1.19 µM
TGI (CAKI-1 [16]): 10.2 µM
GI50 (UO-31): 2.46 µM
TGI (UO-31): 25.3 µM
GI50 (T47D [17]): 2.37 µM
TGI (T47D [17]): 30.3 µM
